Data as given in patent US5112806A, “Antibiotic, mersacidin, a process for the preparation thereof and the use thereof as a pharmaceutical” (Hoechst Aktiengesellschaft, priority 1988, dated 1992).
Read-outs that look alike come from different tables or passages of the source.

Assays:
[1] = test system: S. aureus 3066; experiment: MIC, growth inhibition in vitro; type: cell-based
Excerpt: (§1) The biological properties of mersacidin as the MIC values required for inhibition of the growth of various microorganisms are listed in Table 3.

[2] = test system: S. aureus 710; experiment: MIC, growth inhibition in vitro; type: cell-based
Excerpt: as §1

[3] = test system: S. aureus R 85; experiment: MIC, growth inhibition in vitro; type: cell-based
Excerpt: as §1

[4] = test system: Staphylococcus aureus 209P; experiment: MIC, growth inhibition in vitro; type: cell-based
Excerpt: as §1

[5] = test system: S. aureus 25923; experiment: MIC, growth inhibition in vitro; type: cell-based; conditions: Table 5
[6] = test system: S. epidermidis 32965; experiment: MIC, growth inhibition in vitro; type: cell-based; conditions: Table 5
[7] = test system: S. epidermidis 823; experiment: MIC, growth inhibition in vitro; type: cell-based; conditions: Table 5
[8] = test system: S. haemolyticus 712; experiment: MIC, growth inhibition in vitro; type: cell-based; conditions: Table 5
[9] = test system: S. haemolyticus 809; experiment: MIC, growth inhibition in vitro; type: cell-based; conditions: Table 5
[10] = test system: Streptococcus hominis ML 22; experiment: MIC, growth inhibition in vitro; type: cell-based; conditions: Table 5
[11] = test system: Streptococcus faecalis 29212; experiment: MIC, growth inhibition in vitro; type: cell-based; conditions: Table 5
[12] = test system: Streptococcus faecalis 21777; experiment: MIC, growth inhibition in vitro; type: cell-based; conditions: Table 5
[13] = test system: S. aureus SG 511; experiment: In vivo activity against S. aureus SG 511 infection in mice
Protocol: On subcutaneous administration in a dose of 9.37 and 25.00 mg/kg to laboratory mice infected experimentally with Staphylococcus aureus SG 511 and S. aureus 710 (resistant to methicillin), […].
In vivo activity of mersacidin against S. aureus SG 511
infection in mice compared with vancomycin.
Inoculation medium used: 1.75 × 10^9 CFU/mouse

[14] = test system: S. aureus E 710 (MRSA); experiment: In vivo activity against S. aureus E 710 (MRSA) in mice
Protocol: On subcutaneous administration in a dose of 9.37 and 25.00 mg/kg to laboratory mice infected experimentally with Staphylococcus aureus SG 511 and S. aureus 710 (resistant to methicillin), […]. […]

[15] = test system: S. aureus C 31153; experiment: In vivo activity against S. aureus C 31153 infection in mice; conditions: S. aureus C 31153 (Methicillin & Caphalexin resistant), 2 × 10^9 CFU/mouse
Excerpt: (§2) In vivo activity of potassium mersacidin against S. aureus
(§3) and Streptococcus pyogenes A 77 infection in mice

[16] = test system: Streptococcus pyogenes A 77; experiment: In vivo activity against Streptococcus pyogenes A 77 infection in mice; conditions: Streptococcus pyogenes A 77, 3,8 × 10^3 CFU/mouse
Excerpt: as §2, §3

[17] = physchem; conditions: water
Protocol: These salts can be prepared by the treatment of mersacidin with 1.0 equivalent of the corresponding alkali metal hydroxide in the presence of pyridine. For example, mersacidin (50 mg) was dissolved in 1 ml of pyridine, the solution cooled to 0° C. and a solution of 1.683 mg of KOH in 3 ml of distilled water was added under stirring.

[18] = test system: Bacillus subtilis; experiment: MIC, growth inhibition in vitro; type: cell-based
Excerpt: as §1

[19] = test system: Cornybacterium JK; experiment: MIC, growth inhibition in vitro; type: cell-based
Excerpt: as §1

[20] = test system: Group A Streptococci; experiment: MIC, growth inhibition in vitro; type: cell-based
Excerpt: as §1

[21] = test system: Group B Streptococci; experiment: MIC, growth inhibition in vitro; type: cell-based
Excerpt: as §1

[22] = test system: Group C Streptococci; experiment: MIC, growth inhibition in vitro; type: cell-based
Excerpt: as §1

[23] = test system: Group G Streptococci; experiment: MIC, growth inhibition in vitro; type: cell-based
Excerpt: as §1

[24] = test system: Listeria monocyctogenes; experiment: MIC, growth inhibition in vitro; type: cell-based
Excerpt: as §1

[25] = test system: Micrococcus luteus; experiment: MIC, growth inhibition in vitro; type: cell-based
Excerpt: as §1

[26] = test system: Peptostreptococci species; experiment: MIC, growth inhibition in vitro; type: cell-based
Excerpt: as §1

[27] = test system: Propionibacterium genes; experiment: MIC, growth inhibition in vitro; type: cell-based
Excerpt: as §1

[28] = test system: S. aureus 20240; experiment: MIC, growth inhibition in vitro; type: cell-based
Excerpt: as §1

[29] = test system: S. aureus 20424; experiment: MIC, growth inhibition in vitro; type: cell-based
Excerpt: as §1

[30] = test system: S. aureus 20666; experiment: MIC, growth inhibition in vitro; type: cell-based
Excerpt: as §1

[31] = test system: S. aureus 285; experiment: MIC, growth inhibition in vitro; type: cell-based
Excerpt: as §1

[32] = test system: S. aureus 503; experiment: MIC, growth inhibition in vitro; type: cell-based
Excerpt: as §1

[33] = test system: S. aureus 722; experiment: MIC, growth inhibition in vitro; type: cell-based
Excerpt: as §1

[34] = test system: S. aureus 789; experiment: MIC, growth inhibition in vitro; type: cell-based
Excerpt: as §1

[35] = test system: S. aureus E 712; experiment: MIC, growth inhibition in vitro; type: cell-based
Excerpt: as §1

[36] = test system: S. aureus E 88; experiment: MIC, growth inhibition in vitro; type: cell-based
Excerpt: as §1

[37] = test system: S. epidermidis MRSE; experiment: MIC, growth inhibition in vitro; type: cell-based
Excerpt: as §1

[38] = test system: S. epidermidis MSSE; experiment: MIC, growth inhibition in vitro; type: cell-based
Excerpt: as §1

[39] = test system: Staphylococcus aureus SG 511; experiment: MIC, growth inhibition in vitro; type: cell-based
Excerpt: as §1

[40] = test system: Str. D 21777; experiment: MIC, growth inhibition in vitro; type: cell-based
Excerpt: as §1

[41] = test system: Streptococcus bovis; experiment: MIC, growth inhibition in vitro; type: cell-based
Excerpt: as §1

[42] = test system: Streptococcus faecalis; experiment: MIC, growth inhibition in vitro; type: cell-based; conditions: Streptococcus faecalis (Table 3 no. 17)
Excerpt: as §1

[43] = test system: Streptococcus pneumoniae; experiment: MIC, growth inhibition in vitro; type: cell-based
Excerpt: as §1

[44] = test system: Streptococcus viridans; experiment: MIC, growth inhibition in vitro; type: cell-based
Excerpt: as §1

[45] = test system: Streptococcus faecalis; experiment: MIC, growth inhibition in vitro (second entry, no. 27); type: cell-based; conditions: Streptococcus faecalis (Table 3 no. 27)
Excerpt: as §1

[46] = test system: S. aureus SG 511; experiment: In vivo activity against S. aureus SG 511 abscess in rats; conditions: infecting dose 2 × 10^-9 CFU in 5% mucin under the skin, 50 mg/kg × 7 days
Protocol: In vivo activity of mersacidin against S. aureus SG 511 abscess in rats, compared with vancomycin.
Infecting dose : […] in 5% mucin, injected under the skin.
Treatment: 50 mg/kg × 7 days

[47] = Animal mortality after subcutaneous dose; type: in vivo; conditions: laboratory mice; 500 mg/kg subcutaneous, highest concentration tested
[48] = test system: S. aureus SG 511; experiment: In vivo activity against S. aureus SG 511 infection in mice; remark: listed apart in the source
[49] = S. aureus SG 511, 1.75 × 10^9 CFU/mouse, 9.37 mg/kg × 3, s.c.
[50] = S. aureus E 710 (MRSA), 5 × 10^9 CFU/mouse (1 MLD), 6.25 mg/kg × 3, s.c.
[51] = S. aureus E 710 (MRSA), 5 × 10^9 CFU/mouse (1 MLD), 9.37 mg/kg × 3, s.c.
[52] = S. aureus E 710 (MRSA), 5 × 10^9 CFU/mouse (1 MLD), 12.50 mg/kg × 3, s.c.
[53] = S. aureus E 710 (MRSA), 5 × 10^9 CFU/mouse (1 MLD), 25.00 mg/kg × 3, s.c.
[54] = S. aureus E 710 (MRSA), 5 × 10^9 CFU/mouse (1 MLD), s.c.
[55] = mice, S. aureus SG 511, 1.75 × 10^9 CFU/mouse, 0.80 mg/kg × 3, s.c.
[56] = mice, S. aureus SG 511, 1.75 × 10^9 CFU/mouse, 1.60 mg/kg × 3, s.c.
[57] = mice, S. aureus SG 511, 1.75 × 10^9 CFU/mouse, 3.12 mg/kg × 3, s.c.
[58] = mice, S. aureus SG 511, 1.75 × 10^9 CFU/mouse, 6.25 mg/kg × 3, s.c.

`C=C1NC(=O)[C@@H]2NC(=O)[C@H](CC(C)C)NC(=O)[C@H](NC(=O)[C@@H]3CS[C@@H](C)[C@@H](NC(=O)[C@H](Cc4ccccc4)NC(=O)[C@@H]4NC(=O)[C@@H](N)CS[C@H]4C)C(=O)N[C@@H](CC(C)C)C(=O)N4CCC[C@H]4C(=O)NCC(=O)NCC(=O)NCC(=O)NCC(=O)N[C@@H](C(C)C)C(=O)N3)[C@H](C)SC[C@H](NC(=O)[C@H](CCC(=O)O)NC1=O)C(=O)N[C@@H]([C@@H](C)CC)C(=O)N/C=C\S[C@H]2C` [potassium mersacidin] gave an MIC values ([1]; Table 5) of 10 µg/mL, an MIC values ([2]; Table 5) of 1 µg/mL and an MIC values ([3]; Table 5) of 2 µg/mL. For the same compound, the MIC values ([4]; Table 5) was 2 µg/mL, the MIC values [5] was 8 µg/mL and the MIC values [6] was 6 µg/mL. The MIC values [7] was 50 µg/mL, the MIC values [8] was 10 µg/mL and the MIC values [9] was 4 µg/mL. For the same compound, the MIC values [10] was 10 µg/mL, the MIC values [11] was 15 µg/mL and the MIC values [12] was 15 µg/mL. The “50% Effective Dose (ED50)” value ([13]; S. aureus SG 511 (Methicillin sensitive), 1,75 × 10^9 CFU/mouse) was 2,85 mg/kg × 3, s.c, the “50% Effective Dose (ED50)” value ([14]; S. aureus E 710 (Methicillin resistant), 1 × 10^10 CFU/mouse) was 6,72 mg/kg × 3, s.c and the “50% Effective Dose (ED50)” value [15] was 15,35 mg/kg × 3, s.c. The “50% Effective Dose (ED50)” value [16] was 0,46 mg/kg × 3, s.c and the solubility [17] was ≥ 160 mg/mL.

For mersacidin, the MIC values [18] was 0,39-0,78 μg/ml, the MIC values [19] was 2,0-4,0 μg/ml and the MIC values [20] was 0,5-8,0 μg/ml. For the same compound, the MIC values [21] was 1,0-8,0 μg/ml, the MIC values [22] was 2,0-64 μg/ml and the MIC values [23] was 2,0-8,0 μg/ml. The MIC values [24] was 16,0-64,0 μg/ml, the MIC values [25] was 0,0975-0,195 μg/ml and the MIC values [26] was 0,5-8,0 μg/ml. The MIC values [27] was 1,0-16,0 μg/ml, the MIC values [28] was 3.12 to 6.25 µg/mL and the MIC values [29] was 1.56 to 3.12 µg/mL. For the same compound, the MIC values [30] was 3,12-6,25 μg/ml, the MIC values [31] was 0,78-1,56 μg/ml and the MIC values [1] was 12.50 to 25.00 µg/mL. The MIC values [32] was 0.78 to 1.56 µg/mL, the MIC values [2] was 0,39-0,78 μg/ml and the MIC values [33] was 3.12 to 6.25 µg/mL. The MIC values [34] was 0.78 to 1.56 µg/mL, the MIC values [35] was 3,12-6,25 μg/ml and the MIC values [36] was 6.25 to 12.50 µg/mL. The MIC values [3] was 0,39-0,78 μg/ml, the MIC values [37] was 0,5-16,0 μg/ml and the MIC values [38] was 0,5-16,0 μg/ml. The MIC values [4] was 0.78 to 1.56 µg/mL, the MIC values [39] was 0,39-0,78 μg/ml and the MIC values [40] was 1,56-3,12 μg/ml. For the same compound, the MIC values [41] was 4,0-32,0 μg/ml, the MIC values [42] was 0,0975-0,195 μg/ml and the MIC values [43] was 1,0-4,0 μg/ml. The MIC values [44] was 0,5-32,0 μg/ml, the MIC values [45] was 64,0 μg/ml and the “Number of mice treated/cured” value [13, 49] was 53/53. The “percentage rate of cure” value [13, 49] was 100%, the “Approx. ED50” value ([13]; S. aureus SG 511, 1.75 × 10^9 CFU/mouse, s.c.) was ~2.59 mg/kg × 3 and the “Number of mice treated/cured” value [14, 50] was 1/10. The “percentage rate of cure” value [14, 50] was 10%, the “Number of mice treated/cured” value [14, 51] was 4/10 and the “percentage rate of cure” value [14, 51] was 40%. For the same compound, the “Number of mice treated/cured” value [14, 52] was 10/16, the “percentage rate of cure” value [14, 52] was 63% and the “Number of mice treated/cured” value [14, 53] was 12/12. The “percentage rate of cure” value [14, 53] was 100%, the “Approx. ED50” value [14, 54] was ~10.81 mg/kg × 3 and the “Approx. ED90” value [14, 54] was ~19.59 mg/kg × 3. The “reduces bacterial counts by” value [46] was 1.4 log10 CFU/ml, the animal mortality [47] was “no animal mortality was observed” and the “activity in the in vivo system of laboratory mice” value ([48]; mice infected with S. aureus SG 511 and S. aureus 710 (resistant to methicillin), 9.37 and 25.00 mg/kg s.c.) was “good activity”. For the same compound, the “Number of mice treated/cured” value [48, 55] was 0/27, the “percentage rate of cure” value [48, 55] was 0% and the “Number of mice treated/cured” value [48, 56] was 3/24. For the same compound, the “percentage rate of cure” value [48, 56] was 12%, the “Number of mice treated/cured” value [48, 57] was 18/27 and the “percentage rate of cure” value [48, 57] was 67%. The “Number of mice treated/cured” value [48, 58] was 38/40, the “percentage rate of cure” value [48, 58] was 95% and the “Approx. ED90” value ([48]; mice, S. aureus SG 511, 1.75 × 10^9 CFU/mouse, s.c.) was ~5.38 mg/kg × 3.
